Row | Structure (SMILES) | melting point [°C]
1 | Cc1ccc(-n2nc3c4cc(/C=C/C(=O)OCc5ccccc5)ccc4[nH]c(=O)n3c2=O)cc1 | 242
2 | CC(C)c1cccc(-n2cnc(CO)c2)c1 | 76 to 77
3 | CC(C)(c1ccccc1)N1CCC(=O)C(c2ccccc2)C1=O (stereo not given) | 129 to 132
4 | Cc1ccsc1-c1nc2cc([N+](=O)[O-])ccc2o1 | 174 to 176
5 | COc1cc(-c2c(Cl)c(CN3C(=O)CCC3=O)nc3sc4c(c23)CCNC4)ccc1OC(C)C | 175 to 176
6 | Cc1nc(-c2ccc(F)cc2)c(-c2ccc(S(C)(=O)=O)cc2)o1 | 158 to 159
7 | COC(=O)C(C)=CC=P(c1ccccc1)(c1ccccc1)c1ccccc1 | 145 to 150
8 | COc1ccccc1-c1cn([C@H]2CN3CCC2CC3)nn1 | 120
9 | CN(C)S(=O)(=O)c1cc(-c2csc(=Nc3ccccc3Cl)n2C)ccc1Cl | 152 to 154
10 | CC1(C)C(=O)Nc2cccc(O)c21 | 224 to 225
11 | CC(C)c1oc(-c2ccccc2)c(-c2ccc(F)c(Oc3ccccc3)c2)c1C=O | 137
12 | CCN(CC)CCNC(=O)c1cc(Cl)c(N)cc1OCC(C)=O | 105 to 106
13 | O=C(O)COCCCCC1CCCN1c1cnc(-c2ccccc2)c(-c2ccccc2)n1 (stereo not given) | 138 to 140
14 | Nc1nc(-n2cc(C(=O)O)c(=O)c3cc(F)c(F)c(Br)c32)c(F)cc1F | 272 to 278
15 | COc1ccccc1NC(=O)c1ccccc1SSc1ccccc1C(=O)Nc1ccccc1OC | 154 to 155
16 | CN1CCC(c2ccccc2)(c2ccccc2)CC1 | 71 to 73
17 | COc1ccc(-c2cccc3c2C(=O)OC(C)(C)O3)cn1 | 160
18 | O=C(O)CCC(=O)Nc1ccc(Nc2ccccc2)cc1 | 175 to 176
19 | CC(C)[C@H]1c2ccc(F)cc2CC[C@]1(O)CCNCc1nc2ccccc2s1 | 102 to 103
20 | C#CCCCOc1c(C)cc(-c2nc(C)no2)cc1C | 38 to 40
21 | CC1(C)CNc2cc(C(F)(F)F)ccc2C1=O | 121 to 122

Row | Structure (SMILES) | melting point [°C]
22 | CCOC(=O)COC1CCC2C3CCC4N=CCCC4(C)C3CCC12C (stereo not given) | 170 to 172
23 | O=C(O)c1ncn2c1[C@@H]1CCCN1C(=O)c1cc(Cl)ccc1-2 | 227
24 | CN(C(=O)OC(C)(C)C)c1cc(Oc2ccc(-c3ccccc3)cc2)ccc1N | 122 to 123
25 | Cc1ncnc(O)c1Cl | 250 to 251
26 | Oc1ccc2c(c1)COc1c-2cc2ccc(O)cc2c1-c1ccsc1 | 159 to 161
27 | N#CSCC(Cl)=C(Cl)CBr | 64.5 to 66.5
28 | O=C1C(=O)c2ccccc2C2=C1SCC1(CCN(C(=O)c3cccc(Cl)c3)CC1)O2 | 155 to 158
29 | CCN(CC)C(=O)CNC1(c2ccccc2Cl)C(=O)Nc2ccc(Cl)cc21 (stereo not given) | 223
30 | COC(=O)c1ccc(C(=O)CC(=O)c2ccccc2)cc1 | 107 to 108
31 | CCn1c(=O)c2[nH]c(C(C)C)nc2n(Cc2ccc(Cl)cc2)c1=O | 221 to 222
32 | CN(Cc1ccccc1)C1=N/C(=C\c2c[nH]c3ncc(Cl)cc23)C(=O)N1 | 310
33 | Cc1cc(NC(=S)Nc2cc(Cl)ccc2C)sn1 | 187 to 188
34 | O=C(O)C(=O)N1CN(C(=O)c2c(F)cccc2F)C(=O)N(c2ccc(Oc3ccc(C(F)(F)F)cc3Cl)cc2F)C1 | 67 to 72
35 | CC1=NC(=S)N=C1CCCCNC(=O)c1ccccc1 | 180 to 184
36 | CCOc1cc2c(c3c1OC(C)(C)C3)C(c1cccc(NC(=O)CSC)c1)=NC(C)(C)C2 | 162 to 163
37 | CC(c1ccc2c(c1)[nH]c1ccccc12)n1ccnc1 (stereo not given) | 157 to 158
38 | COc1nccc2c(C)c3[nH]c4ccncc4c3cc12 | > 263
39 | CCCCCN1C(=O)C2(OCc3cc4c(cc32)OCO4)c2ccccc21 (stereo not given) | 113 to 115
40 | CCCCCCCCCCCCc1cc(N)on1 | 48.5 to 49.5
41 | Brc1ccn2nc(N3CCOCC3)nc2c1 | 178 to 179

Other lines, results leading:

Row | melting point [°C] | Structure (SMILES)
42 | 272 to 275 | Cc1ccc(F)cc1C(=O)Nc1ccc(C(=O)O)cc1
43 | 90.8 to 91.9 | CC(C)(C)ON(O)C(=O)C(C)(C)CSc1ccc(Oc2ccc(Cl)cn2)cc1
44 | 78 to 80 | O=[N+]([O-])c1cccc(/C=C/c2nc(C3CCC3)cs2)c1
45 | 130 to 131 | COC1(c2cc(F)cc(Sc3ccc(/C(C)=N/O)c(OCc4ccccc4)c3)c2)CCOCC1
46 | 209 to 212 | CC(C)(Cn1c(CCO)nc2c(N)nc3ccccc3c21)NS(C)(=O)=O
47 | 221 to 223 | COc1cc2c(cc1OC)C(c1ccc([N+](=O)[O-])c(C)c1)=NN(c1noc(=O)[nH]1)[C@H](C)C2
48 | 128 to 130 | CCN1c2ncc(CSc3ncnc4[nH]ncc34)cc2C(=O)N(C)c2ccc(Cl)nc21
49 | 70 | O=CCCCN1C(=O)c2ccccc2C1=O
50 | 168 to 171 | COc1ccc(C(=O)Nc2ccccc2)cc1NC(=O)CC(=O)OCc1ccccc1
51 | 125 to 126 | CCOC(=O)c1cn(-c2ccc(OC)c(OC)c2)cn1
52 | 153 to 154 | NC(=O)CNC(=O)c1cccc(-c2cccc3cc(CCc4cccc(C(F)(F)F)c4)sc23)c1
53 | 167 to 169 | COc1ccc(C=C(C)C(=O)O)cc1F
54 | 165 to 168 | NC(=O)C1CCn2c(cc3ccccc32)C1 (stereo not given)
55 | 164 to 168 | O=C(CCCOc1cccc(CNC(=O)c2nc3ccccc3c(=O)[nH]2)c1)NO
56 | 194 to 196 | C[C@@H]1[C@H]2C(=O)N(Cc3ccccc3)C(=O)[C@H]2[C@@H](c2ccc(C(N)=NO)cc2)N1C (racemic)
57 | 112 to 113 | Cc1c(C)c2c(c(C)c1N)CC(C)(CN1CCC(c3ccccc3)CC1)O2 (stereo not given)
58 | 138 to 140 | Cc1cc(NS(C)(=O)=O)cc(C)c1S(=O)(=O)C[N+](=O)[O-]
59 | 178 to 179 | CC1=C(C(=O)OC(C)(C)C)C(c2cccc(F)c2)C(C(=O)OC(C)(C)C)=C(C)N1
60 | 94 to 95 | COc1ccc(N)cc1OCCCN1CCC(c2noc3cc(F)ccc23)CC1
61 | 47 to 48 | CCCCCCCCCCC[C@H](CC(=O)N[C@@H](CO)CCCN)OCc1ccccc1

Row | melting point [°C] | Structure (SMILES)
62 | 81 to 83 | CCCOc1nc2sc(Cl)cc2c(=S)n1CCC
63 | 150 to 153 | O=C(NCc1ccc(Cl)cc1)c1cn(CCc2ccccc2)c2oc(CCl)cc2c1=O
64 | 173 to 174 | CCOC(=O)c1nc(-c2ccc(F)cc2)c(-c2ccc(S(C)(=O)=O)cc2)s1
65 | 178 to 179 | O=C(O)CCC(=O)c1ccc(NC(=O)C2(Cl)CC2)cc1
66 | 114 to 116 | COc1ccc(Cc2ccc(NC3=NCCN3)cc2)cc1
67 | 237 to 240 | O=c1c(Cn2cncn2)cc2cc(Br)ccc2n1-c1ccccc1
68 | 290 to 291 | Cc1nnc(-c2ccnc(NC(=O)OC(C)(C)C)c2)o1
69 | 116 to 118 | COc1cc(C(C)=O)ccc1OCCCN1CCC(c2noc3cc(Cl)ccc23)CC1
70 | 90 to 91 | Cc1cc(C)cc(NC(=O)Cc2ccc(OC3(C(=O)N[C@@H](C)C(=O)O)CCCC3)cc2)c1
71 | 249 to 251 | C=Cc1cc(O)cc2nc(-c3ccc(O)c(F)c3)oc12
72 | 146 to 148 | CCOC(=O)c1ccc(C(=O)Sc2cccn3c(=O)c(C(=O)OCC)cnc23)cc1
73 | 128 to 130 | COc1ccc(CCc2ccc(NC(=O)C(=O)c3cc(Cl)ccc3O)cc2)cc1OC
74 | 341 to 343 | NC(=O)c1nc(-c2cccc(O)c2)nc2c1[nH]c(=O)n2C1CCc2ccccc21 (stereo not given)
75 | 192 to 196 | CC(=C1SC(=O)NC1=O)c1ccc(OCCOc2c(-c3cc(F)ccc3C)n(C)c3ccccc3c2=O)cc1
76 | 162 | Cc1c(CC(=O)O)c2cc(C(=O)C(C)C)cc3c2n1CCC3
77 | 215 to 216 | CN(C)c1ccnc2c(NC(=O)c3c(Cl)cccc3Cl)cccc12
78 | 157 to 159 | O=C(NCCCCOc1ccc(-n2ccnc2)cc1)c1cccc2ccccc12
79 | 184 to 185 | C#Cc1ccc2c(c1)c1cc(-c3ccc(Cl)cc3Cl)c(=O)n(C)c1n2C
80 | 122 to 124 | CCOC1CC2(C)C(CCC3C4CCC(C(=O)OC)C4(C)CC(NCCC(C)C)C32)CC1O (stereo not given)
81 | 125 to 127 | Cc1nccn1CCNC(=O)c1cccc2oc(-c3ccccc3)nc12

Row | melting point [°C] | Structure (SMILES)
82 | 172 to 174 | C[C@]12CCC(=O)N[C@@H]1CCc1cc(SCc3ccccc3)ccc12
83 | 198 to 199 | CCCCc1nc2cnc3cccnc3c2n1CCNC(=O)OC(C)(C)C
84 | 216 to 218 | O=S(=O)(c1ccccc1)n1c2ccc(C=Cc3ccccc3)cc2c2c(Cl)ccnc21
85 | 86 to 87 | CCOC(=O)c1cnn2c1c(SC)nc1c(C)nn(C)c12
86 | 125 to 130 | CC=CC1OC(=O)c2ccc(N)cc21 (stereo not given)
87 | 103 | O=C(c1cccs1)c1cnn2c(-c3cccc(-c4nnn(CCN5CCOCC5)n4)c3)ccnc12
88 | 88 to 89 | COC(=O)CCCc1cc2nc(Cl)ccc2n1S(=O)(=O)c1ccc(C)cc1Cl
89 | 143 to 144 | Cc1c(C)c2c(c(C)c1N)C(c1ccc(Br)cc1)C(C)(C)O2 (single isomer, unassigned; (+))
90 | 219 to 220 | Cc1cc(-c2nc3cccnn3c2-c2ccnc(NC(=O)c3ccncc3)c2)ccc1F
91 | > 260 | CS(=O)(=O)Nc1ccc(NC(=O)C(=O)O)cc1
92 | 115 to 117 | Brc1ccccc1OCc1ccc2ccccc2n1
93 | 152 to 155 | COc1cc(/C=C/C(=O)CC(=O)/C=C/c2cccc(O)c2OC)ccc1O
94 | 82.5 to 83.5 | S=C(Cc1ccc(Cl)cc1)N1CCCCC1
95 | 142 to 144 | Nc1cc(-c2ccc(C(F)(F)F)cc2)no1
96 | 121 to 123 | COP(=O)(Cc1cc(C)c(CP(=O)(OC)OC)cc1C)OC
97 | 142 to 144 | Cc1ccc(S(=O)(=O)N(C)c2ccc(Cl)cc2S(C)=O)cc1 (stereo not given)
98 | 162 to 164 | O=C1N(CC2CCCO2)c2ccccc2C12COc1cc3c(cc12)OCC3 (stereo not given)
99 | 120 to 123 | O=c1oc(-c2cccc(F)c2)nc2cccc(Cl)c12
100 | 116 | COc1cccc(-c2cc(=O)c3cccc(C(=O)Nc4ccc(CCCCN5CCc6cc(OC)c(OC)cc6C5)cc4)c3[nH]2)c1

Reference: a melting point compilation (Tetko et al.; mined from patent text by program, amines drawn as free bases though some values may be those of a salt)
